Experimental data from ChEMBL document CHEMBL4842340, “Development of Cagrilintide, a Long-Acting Amylin Analogue” (J Med Chem, 2021).
In brackets after ≈: the same amount, converted by molar mass. *1 amine or outer side, *2 acyl side, *3 side chain or, on linkers, in order; H or OH if unused. Where a SMILES comes first, the peptide text is derived from it. Bridges are numbered along the chain shown (N, C = ends). The star is where a group is joined. C20 diacid = O=C(O)CCCCCCCCCCCCCCCCCCC(=O)*; γGlu = O=C(O)[C@H](CCC(=O)[*:2])N[*:1]

Columns and labels:
[1] = Displacement of [125I]-amylin from rat AMY3R (CTR+RAMP3) expressed in BHK-13 cells measured after 120 mins by scintillation proximity assay; assay type: cell-based
[2] = Displacement of [125I]-amylin from human AMY3R (CTR+RAMP3) expressed in BHK-13 cells measured after 120 mins by scintillation proximity assay; assay type: cell-based
[3] = Displacement of [125I]-calcitonin from human calcitonin receptor expressed in tk-ts 13 cells measured after 120 mins by scintillation proximity assay; assay type: cell-based; settings: tk-ts13
[4] = Agonist activity at human AMY3R (CT+RAMP3) expressed in Hollex1 cells incubated for 3 hrs by luminescence assay; assay type: cell-based; settings: Hollex1, 3 h
[5] = Displacement of [125I]-calcitonin from rat calcitonin receptor expressed in tk-ts 13 cells measured after 120 mins by scintillation proximity assay; assay type: cell-based; settings: tk-ts13
[6] = Agonist activity at human calcitonin receptor expressed in BHK570 cells assessed as increase in intracellular cAMP concentration incubated for 3 hrs in absence of albumin by CRE luciferase reporter gene assay; assay type: cell-based; settings: BHK570, 3 h
[7] = Solubility of the compound in lactate at pH 4 by UPLC analysis; assay type: physicochemical; settings: lactate buffer
[8] = Solubility of the compound in lactate at pH 3 by UPLC analysis; assay type: physicochemical; settings: lactate buffer
[9] = Solubility of the compound in bis-tris propane at pH 8 by UPLC analysis; assay type: physicochemical; settings: bis-tris propane buffer
[10] = target: Insulin (Homo sapiens) (UniProt P01308); assay: Effect on insulin (unknown origin) amyloid fibril formation assessed as peptide recovery in glycyl-glycine buffer at pH 4 measured after 45 hrs by thioflavin-T fluorescence assay relative to control; design: concentration or dose not given beside the values
Chain of Insulin (Homo sapiens) (P01308 whole entry): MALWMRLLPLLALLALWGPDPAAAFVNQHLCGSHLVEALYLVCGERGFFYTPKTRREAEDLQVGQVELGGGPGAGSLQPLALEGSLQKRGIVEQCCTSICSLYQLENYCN

[11] = Solubility of the compound in bis-tris propane at pH 7 by UPLC analysis; assay type: physicochemical; settings: bis-tris propane buffer
[12] = Agonist activity at rat AMY3R (CT+RAMP3) expressed in tk-ts13 cells assessed as increase in intracellular cAMP level incuabted for 25 mins by CRE luciferase reporter gene assay; assay type: cell-based; settings: tk-ts13, 25 min
[13] = Solubility of the compound in lactate at pH 5 by UPLC analysis; assay type: physicochemical; settings: lactate buffer
[14] = Agonist activity at rat calcitonin receptor expressed in BHK-13 cells assessed as increase in intracellular cAMP concentration incubated for 25 mins by CRE luciferase reporter gene assay; assay type: cell-based; settings: BHK-13, 25 min
[15] = system: Rattus norvegicus; assay: Reduction in food intake in Sprague-Dawley rat at 3 nmol/kg, sc administered as single dose measured upto 24 hrs relative to control; assay type: functional; design: scale not given: the % may be the effect or the level left; settings: time hrs <=24
[16] = Solubility of the compound in bis-tris propane at pH 6.5 by UPLC analysis; assay type: physicochemical; settings: bis-tris propane buffer
[17] = target: Insulin (Homo sapiens) (UniProt P01308); assay: Effect on insulin (unknown origin) amyloid fibril formation assessed as lag time in glycyl-glycine buffer at pH 4 measured after 45 hrs by thioflavin-T fluorescence assay
[18] = species: Rattus norvegicus; assay: Ratio of EC50 for rat calcitonin receptor expressed in BHK-13 cells to EC50 for rat AMY3R (CT+RAMP3) expressed in tk-ts13 cells; assay type: cell-based
[19] = Solubility of the compound in bis-tris propane at pH 7.5 by UPLC analysis; assay type: physicochemical; settings: bis-tris propane buffer
[20] = system: Rattus norvegicus; assay: Reduction in food intake in Sprague-Dawley rat at 3 nmol/kg, sc administered as single dose measured after 24 to 48 hrs relative to control; assay type: functional; design: scale not given: the % may be the effect or the level left; settings: time 24-48 hrs
[21] = Solubility of the compound in bis-tris propane at pH 6 by UPLC analysis; assay type: physicochemical; settings: bis-tris propane buffer
[22] = species: Homo sapiens; assay: Ratio of EC50 for human calcitonin receptor expressed in BHK570 cells to EC50 for human AMY3R (CT+RAMP3) expressed in Hollex1 cells; assay type: cell-based

CC[C@H](C)[C@H](NC(=O)[C@H](CCC(=O)O)NC(=O)CNC(=O)[C@H](Cc1ccccc1)NC(=O)[C@H](CC(N)=O)NC(=O)[C@H](CC(N)=O)NC(=O)[C@H](CO)NC(=O)[C@H](CO)NC(=O)[C@H](CCCNC(=N)N)NC(=O)[C@H](Cc1cnc[nH]1)NC(=O)[C@H](CC(C)C)NC(=O)[C@H](Cc1ccccc1)NC(=O)[C@H](CCC(=O)O)NC(=O)[C@H](C)NC(=O)[C@H](CC(C)C)NC(=O)[C@H](CCCNC(=N)N)NC(=O)[C@H](CCC(N)=O)NC(=O)[C@@H](NC(=O)[C@H](C)NC(=O)[C@@H]1CSSC[C@H](NC(=O)[C@H](Cc2cnc[nH]2)NC(=O)CC[C@H](NC(=O)CCCCCCCCCCCCCCCCCCC(=O)O)C(=O)O)C(=O)N[C@@H](CC(N)=O)C(=O)N[C@@H]([C@@H](C)O)C(=O)N[C@@H](C)C(=O)N[C@@H]([C@@H](C)O)C(=O)N1)[C@@H](C)O)C(=O)N[C@@H](CC(C)C)C(=O)N[C@@H](CO)C(=O)N[C@@H](CCCNC(=N)N)C(=O)N[C@H](C(=O)N[C@@H](CC(N)=O)C(=O)N[C@H](C(=O)NCC(=O)N[C@@H](CO)C(=O)N[C@@H](CC(N)=O)C(=O)N[C@H](C(=O)N[C@@H](Cc1ccc(O)cc1)C(N)=O)[C@@H](C)O)C(C)C)[C@@H](C)O
IC50 [1]: 0.445 nM
IC50 [2]: 0.818 nM
IC50 [3]: 1.54 nM
EC50 [4]: 0.077 nM
IC50 [5]: 1.37 nM
EC50 [6]: 0.129 nM
solubility [7]: 200 µM (≈ 913 µg/mL)
solubility [8]: 200 µM (≈ 913 µg/mL)

CC[C@H](C)[C@H](NC(=O)[C@@H]1CCCN1C(=O)CNC(=O)[C@H](Cc1ccccc1)NC(=O)[C@H](CC(N)=O)NC(=O)[C@H](CC(N)=O)NC(=O)[C@H](CO)NC(=O)[C@H](CO)NC(=O)[C@H](Cc1cnc[nH]1)NC(=O)[C@H](Cc1cnc[nH]1)NC(=O)[C@H](CC(C)C)NC(=O)[C@H](Cc1ccccc1)NC(=O)[C@H](CCC(=O)O)NC(=O)[C@H](C)NC(=O)[C@H](CC(C)C)NC(=O)[C@H](CCCNC(=N)N)NC(=O)[C@H](CCC(N)=O)NC(=O)[C@@H](NC(=O)[C@H](C)NC(=O)[C@@H]1CSSC[C@H](NC(=O)[C@H](CCCNC(=N)N)NC(=O)CC[C@H](NC(=O)CC[C@H](NC(=O)CCCCCCCCCCCCCCCCCCC(=O)O)C(=O)O)C(=O)O)C(=O)N[C@@H](CC(N)=O)C(=O)N[C@@H]([C@@H](C)O)C(=O)N[C@@H](C)C(=O)N[C@@H]([C@@H](C)O)C(=O)N1)[C@@H](C)O)C(=O)N[C@@H](CC(C)C)C(=O)N1CCC[C@H]1C(=O)N1CCC[C@H]1C(=O)N[C@H](C(=O)N[C@@H](CC(N)=O)C(=O)N[C@H](C(=O)NCC(=O)N[C@@H](CO)C(=O)N[C@@H](CC(N)=O)C(=O)N[C@H](C(=O)N[C@@H](Cc1ccc(O)cc1)C(N)=O)[C@@H](C)O)C(C)C)[C@@H](C)O ({C20 diacid-γGlu-γGlu}-RCNTATCATQRLAEFLHHSSNNFGPILPPTNVGSNTY-NH2; disulfide 2-7)
solubility [9]: 200 µM (≈ 923 µg/mL)
Activity [10]: 0%
solubility [11]: 200 µM (≈ 923 µg/mL)
EC50 [12]: 0.277 nM
solubility [13]: 200 µM (≈ 923 µg/mL)
EC50 [4]: 0.129 nM
EC50 [14]: 1.34 nM
Activity [15]: 46%
solubility [16]: 200 µM (≈ 923 µg/mL)
TIME [17]: 2 h
Ratio EC50 [18]: 5
solubility [19]: 200 µM (≈ 923 µg/mL)
EC50 [6]: 0.205 nM
Activity [20]: 39%
solubility [21]: 200 µM (≈ 923 µg/mL)
Ratio EC50 [22]: 2
solubility [7]: 200 µM (≈ 923 µg/mL)
solubility [8]: 200 µM (≈ 923 µg/mL)
